Assay results taken from paper PMC4301837, “Aldosterone synthase inhibition: cardiorenal protection in animal disease models and translation of hormonal effects to human subjects” (Journal of Translational Medicine, 2014).
Read-outs that look alike come from different tables or passages of the source.

What was measured:
clinical = details: male, human, plasma; for half-life: t½
[1] = tested on: patients with essential hypertension; details: cited from earlier work
[2] = tested on: patients with Cushing’s disease; details: 12 patients, 2–50 mg twice daily, cited from earlier work
[3] = tested on: dTG rats overexpressing human renin and angiotensinogen; assay: Survival study in young dTG rats; type: in vivo, rat
[4] = tested on: dTG rats overexpressing human renin and angiotensinogen; type: in vivo; details: dTG rats, LCI699 3–100 mg/kg/day
human CYP11B2 = tested on: human CYP11B2; set-up: method as in PMID 24899257; details: recombinant hamster fibroblasts expressing human CYP11B1 and CYP11B2; read-out: IC50, inhibition of aldosterone synthesis; cited from earlier work
[5] = dogs, ref D. Rigel, personal communication, cited from earlier work
[6] = human, 0.5–3 mg once daily oral
[7] = tested on: ACTH-stimulated aldosterone and corticosterone synthesis; details: rat, ACTH stimulation
in vitro [8] = details: monkey, plasma
in vitro [9] = details: human, plasma
[10] = tested on: ACTH-stimulated plasma aldosterone and cortisol; assay: animal or person; details: Macaca fascicularis
in vivo = details: male, Sprague-Dawley, rat, plasma, po
[11] = biological target: recombinant rat 11β-hydroxylase (CYP11B1) (Rattus norvegicus, UniProt P15393); assay: biochemical
[12] = biological target: recombinant human 11β-hydroxylase (CYP11B1) (Homo sapiens, UniProt P15538); details: Lineweaver–Burk plots; at higher concentrations
[13] = oral, single-dose phase, doses up to 200 mg
[14] = 524 patients, 0.25 to 1 mg, 8 weeks

Sequence of recombinant rat 11β-hydroxylase (CYP11B1) (P15393 25-499): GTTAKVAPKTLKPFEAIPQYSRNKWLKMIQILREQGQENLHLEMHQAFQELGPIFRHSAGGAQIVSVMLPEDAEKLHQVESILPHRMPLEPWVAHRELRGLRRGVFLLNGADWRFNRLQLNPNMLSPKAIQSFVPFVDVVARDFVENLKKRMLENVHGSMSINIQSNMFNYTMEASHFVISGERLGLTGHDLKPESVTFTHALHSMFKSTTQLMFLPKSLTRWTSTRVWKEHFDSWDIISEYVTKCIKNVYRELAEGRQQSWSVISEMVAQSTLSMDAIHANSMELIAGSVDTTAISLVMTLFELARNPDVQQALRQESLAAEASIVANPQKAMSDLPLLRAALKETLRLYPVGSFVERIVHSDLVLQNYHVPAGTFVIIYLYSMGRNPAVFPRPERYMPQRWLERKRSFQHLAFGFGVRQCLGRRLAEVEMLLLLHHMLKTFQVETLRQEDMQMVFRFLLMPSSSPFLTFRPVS
Sequence of recombinant human 11β-hydroxylase (CYP11B1) (P15538 25-503): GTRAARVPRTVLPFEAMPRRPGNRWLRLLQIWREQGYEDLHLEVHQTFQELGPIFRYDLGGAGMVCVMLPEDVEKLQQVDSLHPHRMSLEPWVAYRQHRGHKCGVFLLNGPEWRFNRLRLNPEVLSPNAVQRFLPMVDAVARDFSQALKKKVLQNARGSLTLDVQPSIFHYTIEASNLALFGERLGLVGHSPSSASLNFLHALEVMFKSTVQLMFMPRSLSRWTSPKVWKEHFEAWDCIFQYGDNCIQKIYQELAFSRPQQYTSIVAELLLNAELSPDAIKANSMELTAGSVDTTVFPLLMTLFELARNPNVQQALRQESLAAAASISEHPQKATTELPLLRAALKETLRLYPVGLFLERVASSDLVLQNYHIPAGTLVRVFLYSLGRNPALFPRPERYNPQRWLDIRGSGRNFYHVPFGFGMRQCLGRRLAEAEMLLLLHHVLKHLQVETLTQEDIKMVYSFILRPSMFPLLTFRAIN

SMILES: N#Cc1ccc([C@H]2CCc3cncn32)c(F)c1 [LCI699]
- Tmax (clinical; [13]): ~1 h
- half-life (clinical; oral, after both single and multiple doses): ~240 min
- half-life (clinical; [13]): ~240 min
- Tmax (clinical; po, 0.5–3 mg once daily oral): ~1 h
- hypertensive patients with attenuated ACTH-stimulated cortisol response ([1]; 1 mg once daily): approximately 20%
- placebo-corrected reduction in ambulatory diastolic blood pressure [1, 14]: 3–6 mmHg
- placebo-corrected reduction in ambulatory systolic blood pressure [1, 14]: 6–9 mmHg
- subjects with suppressed ACTH-stimulated cortisol release ([1]; total daily dose of 1 mg): approximately 20%
- patients with urinary free cortisol below upper limit of normal ([2]; 70 days): 11 patients
- tolerability [2]: well tolerated
- doses at which survival was significantly prolonged ([3]; young dTG rats without established cardiorenal disease, P < 0.01): ≥ 10 mg/kg/day
- maximum median survival time ([3]; young dTG rats, dose–median survival curves): 9.5 weeks
- effect on urinary corticosterone excretion [4]: reduced
- effect on LV fractional shortening ([4]; eplerenone 30 mg/kg): dose-dependently increased
- effect on myocardial cell size ([4]; eplerenone 30 mg/kg): normalized
- effect on BUN levels ([4]; eplerenone 30 mg/kg/day): dose-dependently normalized
- effect on mean arterial pressure ([4]; eplerenone 30 mg/kg/day): neither LCI699 nor eplerenone normalized arterial pressure
- effect on serum potassium ([4]; eplerenone 30 mg/kg/day): corrected serum potassium in a dose-dependent manner
- effect on urinary albumin excretion ([4]; eplerenone 30 mg/kg/day): dose-dependently normalized
- effect on urinary aldosterone excretion ([4]; eplerenone 30 mg/kg/day): reduced
- effect on urine output ([4]; eplerenone 30 mg/kg/day): dose-dependently normalized
- effect on LV weight ([4]; eplerenone 30 mg/kg, data not shown): reduced
- effect on water intake ([4]; data not shown): dose-dependently normalized
- oral bioavailability ([5]; 1 mg/kg oral dose): 96%
- half-life [5]: 36 to 216 min
- Tmax [6]: 1.00 to 1.25 h
- dose above which inhibition of stimulated plasma aldosterone shows an apparent plateau ([7]; oral): > 10 mg/kg
- Maximal reduction in plasma aldosterone from baseline ([7]; approximately 2 h after oral dosing): 80%
- fraction unbound (in vitro [8]): 0.734
- fraction unbound (in vitro [9]): 0.734
- ED50 ([10]; po, read-out: ED50 for inhibition of ACTH-stimulated plasma aldosterone): 0.013 mg/kg
- EC50 ([10]; read-out: EC50 for inhibition of ACTH-stimulated plasma aldosterone): < 1 nM
- half-life (in vivo): 120 to 300 min
- IC50 [11]: 410 ± 5 nM
- mode of inhibition of 11β-hydroxylase [12]: reversible competitive inhibitor
